PubChem BioAssay (NCI)
Values joined by “and” are separate entries in the source; they are usually repeats but may differ in a detail not shown here. Equal entries are not always repeated.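 Cultured in 96-well plates, cells were exposed to test compound for 48 hours across five concentrations. GI50 = concentration required for 50% inhibition of growth. TGI: concentration producing complete growth inhibition.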

How the values were obtained:
Assay in all cases: NCI anticancer screen, dose series, 48 h; in the data active = GI50 below about 0.43 µM; inactive = the rest
786-0 renal = test system: 786-0 renal
A549 NSCLC = test system: A549 NSCLC
HCT-15 colon = test system: HCT-15 colon
HL-60(TB) leukemia = test system: HL-60(TB) leukemia
HT29 colon = test system: HT29 colon
NCI-H226 lung = test system: NCI-H226 lung
SNB-19 CNS = test system: SNB-19 CNS
SR leukemia = test system: SR leukemia
SW-620 colon = test system: SW-620 colon
UACC-257 melanoma = test system: UACC-257 melanoma

COc1ccc(NC(=O)c2ccc(C(F)(F)F)nc2Nc2ccc(Cl)cc2C)cc1Cl
6.46 µM: TGI (SR leukemia)
20.6 µM: TGI (A549 NSCLC)
14.4 µM: TGI (NCI-H226 lung)
19.7 µM: TGI (SNB-19 CNS)
5.37 µM: TGI (HL-60(TB) leukemia)
20.5 µM: TGI (HCT-15 colon)
23.1 µM: TGI (786-0 renal)
14 µM: TGI (HT29 colon)
14.7 µM: TGI (SW-620 colon)
24 µM: TGI (UACC-257 melanoma)
inactive: GI50 (786-0 renal) 9.41 µM | GI50 (A549 NSCLC) 5.39 µM | GI50 (HCT-15 colon) 7.12 µM | GI50 (HL-60(TB) leukemia) 2.4 µM | GI50 (HT29 colon) 3.57 µM | GI50 (NCI-H226 lung) 2.99 µM | GI50 (SNB-19 CNS) 5.45 µM | GI50 (SR leukemia) 1.72 µM | GI50 (SW-620 colon) 4.09 µM | GI50 (UACC-257 melanoma) 10.8 µM

Cc1ccc(NC(=O)C(=O)C2C(=O)NC(=O)NC2=O)c(C)c1
37.8 µM: TGI (NCI-H226 lung)
> 100 µM: TGI (786-0 renal) | TGI (A549 NSCLC) | TGI (HCT-15 colon) | TGI (HL-60(TB) leukemia) | TGI (HT29 colon) | TGI (SNB-19 CNS) | TGI (SR leukemia) | TGI (SW-620 colon) | TGI (UACC-257 melanoma)

CCOc1ccc(Nc2ccnc3cc(Cl)ccc23)cc1
> 100 µM: TGI (786-0 renal) | TGI (A549 NSCLC) | TGI (HCT-15 colon) | TGI (HL-60(TB) leukemia) | TGI (HT29 colon) | TGI (NCI-H226 lung) | TGI (SNB-19 CNS) | TGI (SR leukemia) | TGI (SW-620 colon) | TGI (UACC-257 melanoma)
inactive: GI50 (786-0 renal) 41.1 µM | GI50 (A549 NSCLC) > 100 µM | GI50 (HCT-15 colon) 4.38 µM | GI50 (HL-60(TB) leukemia) > 100 µM | GI50 (HT29 colon) 3.88 µM | GI50 (NCI-H226 lung) 79.7 µM | GI50 (SNB-19 CNS) > 100 µM | GI50 (SR leukemia) 14.7 µM | GI50 (SW-620 colon) > 100 µM | GI50 (UACC-257 melanoma) > 100 µM

CCOC(=O)NC(=O)c1cn(C2CCCCC2)c(=O)n(C)c1=O
> 100 µM: TGI (786-0 renal) | TGI (A549 NSCLC) | TGI (HCT-15 colon) | TGI (HL-60(TB) leukemia) | TGI (HT29 colon) | TGI (NCI-H226 lung) | TGI (SNB-19 CNS) | TGI (SR leukemia) | TGI (SW-620 colon) | TGI (UACC-257 melanoma)

O=C1/C(=C/c2ccc(Cl)cc2)N=C(c2ccccc2)N1c1cc(C(F)(F)F)ccc1Cl
> 100 µM: TGI (A549 NSCLC) | TGI (NCI-H226 lung) | TGI (SNB-19 CNS) | TGI (SW-620 colon)
86.6 µM: TGI (HCT-15 colon)
50.6 µM: TGI (786-0 renal)
99.6 µM: TGI (UACC-257 melanoma)
42.7 µM: TGI (HL-60(TB) leukemia)
inactive: GI50 (786-0 renal) 14.4 µM | GI50 (A549 NSCLC) 24.2 µM | GI50 (HCT-15 colon) 18.9 µM | GI50 (HL-60(TB) leukemia) 16.9 µM | GI50 (HT29 colon) 24.1 µM | GI50 (NCI-H226 lung) 23.6 µM | GI50 (SNB-19 CNS) 36.4 µM | GI50 (SR leukemia) 28.7 µM | GI50 (SW-620 colon) 28.9 µM | GI50 (UACC-257 melanoma) 26.9 µM
73.5 µM: TGI (HT29 colon)
68 µM: TGI (SR leukemia)

COc1nc2c(c(=O)n1C)CN(c1ccccc1)C(=O)CN2C
inactive: GI50 (786-0 renal) > 100 µM | GI50 (A549 NSCLC) > 100 µM | GI50 (HCT-15 colon) 56.7 µM | GI50 (HL-60(TB) leukemia) 49.8 µM | GI50 (HT29 colon) 60.9 µM | GI50 (NCI-H226 lung) 83.8 µM | GI50 (SNB-19 CNS) 60.4 µM | GI50 (SR leukemia) 17 µM | GI50 (SW-620 colon) > 100 µM | GI50 (UACC-257 melanoma) > 100 µM
> 100 µM: TGI (786-0 renal) | TGI (A549 NSCLC) | TGI (HCT-15 colon) | TGI (HL-60(TB) leukemia) | TGI (HT29 colon) | TGI (NCI-H226 lung) | TGI (SNB-19 CNS) | TGI (SR leukemia) | TGI (SW-620 colon) | TGI (UACC-257 melanoma)

C=CCC1(CN(C)C)CC/C(=C\c2cc(OC)c(OC)c(OC)c2)C1=O (centres undefined)
40.6 µM: TGI (HT29 colon)
35.2 µM: TGI (HCT-15 colon)
33.6 µM: TGI (SW-620 colon)
> 100 µM: TGI (A549 NSCLC) | TGI (NCI-H226 lung) | TGI (SNB-19 CNS)
58.3 µM: TGI (UACC-257 melanoma)
39.3 µM: TGI (786-0 renal)
20.6 µM: TGI (HL-60(TB) leukemia)
49.1 µM: TGI (SR leukemia)

COc1ccc2c(c1)C(=O)/C(=C/c1ccc(O)cc1)O2
8.99 µM: TGI (SW-620 colon)
4.71 µM: TGI (SR leukemia)
14.8 µM: TGI (HT29 colon)
15.8 µM: TGI (HCT-15 colon)
2.95 µM: TGI (HL-60(TB) leukemia)
41.4 µM: TGI (786-0 renal)
79 µM: TGI (NCI-H226 lung)
67.5 µM: TGI (A549 NSCLC)
inactive: GI50 (786-0 renal) 17.9 µM | GI50 (A549 NSCLC) 25.7 µM | GI50 (HCT-15 colon) 4.2 µM | GI50 (HL-60(TB) leukemia) 1.35 µM | GI50 (HT29 colon) 4.14 µM | GI50 (NCI-H226 lung) 25.7 µM | GI50 (SNB-19 CNS) 43 µM | GI50 (SR leukemia) 1.79 µM | GI50 (SW-620 colon) 3.34 µM | GI50 (UACC-257 melanoma) 19.8 µM
35.2 µM: TGI (UACC-257 melanoma)
> 100 µM: TGI (SNB-19 CNS)

C[C@]1(c2nc3c(C(N)=O)cccc3[nH]2)CCCN1
> 90 µM and 51.4 µM: TGI (SR leukemia)
inactive: GI50 (786-0 renal) > 100 µM | GI50 (A549 NSCLC) > 65.8 µM and 74.9 µM | GI50 (HCT-15 colon) 54.4 µM and > 100 µM | GI50 (HL-60(TB) leukemia) 66.1 µM and > 100 µM | GI50 (HT29 colon) 61.5 µM and > 100 µM | GI50 (NCI-H226 lung) 50.6 µM and > 74.5 µM | GI50 (SNB-19 CNS) > 100 µM | GI50 (SR leukemia) 19.5 µM and 10.4 µM | GI50 (SW-620 colon) 89.4 µM and > 100 µM | GI50 (UACC-257 melanoma) 99.9 µM and > 100 µM
> 100 µM: TGI (786-0 renal) | TGI (A549 NSCLC) | TGI (HCT-15 colon) | TGI (HL-60(TB) leukemia) | TGI (HT29 colon) | TGI (NCI-H226 lung) | TGI (SNB-19 CNS) | TGI (SW-620 colon) | TGI (UACC-257 melanoma)

COc1cc(/C=C2\C[C@H]3[C@@H]4CC=C5C[C@@H](O)CC[C@]5(C)[C@H]4CC[C@]3(C)[C@H]2O)ccc1OCCN1CCCCC1
> 50 µM: TGI (HT29 colon) | TGI (SNB-19 CNS) | TGI (SR leukemia)
1.18 µM: TGI (786-0 renal)
2.23 µM: TGI (A549 NSCLC)
5.02 µM: TGI (UACC-257 melanoma)
5.62 µM: TGI (NCI-H226 lung)
inactive: GI50 (786-0 renal) 0.47 µM | GI50 (A549 NSCLC) 0.815 µM | GI50 (HCT-15 colon) 0.465 µM | GI50 (HL-60(TB) leukemia) 1.33 µM | GI50 (HT29 colon) 1.54 µM | GI50 (NCI-H226 lung) 2.53 µM | GI50 (SNB-19 CNS) 2.17 µM | GI50 (SR leukemia) 1.11 µM | GI50 (SW-620 colon) 0.76 µM | GI50 (UACC-257 melanoma) 1.61 µM
1.03 µM: TGI (HCT-15 colon)
3.18 µM: TGI (HL-60(TB) leukemia)
